Laboratory results published in PubChem BioAssay (NCI).
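Five compound concentrations were applied to cells in 96-well plates for 48 hours; endpoints were derived by simple linear interpolation of the resulting dose-response curve. At the GI50, growth is halved. TGI marks complete inhibition of growth.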

Tests used:
Experiment in all cases: growth of human tumour cells (NCI), 48 h
[1] = system: A498 renal
[2] = system: CCRF-CEM leukemia
[3] = system: HL-60(TB) leukemia
[4] = system: HOP-62 NSCLC
[5] = system: HOP-92 NSCLC
[6] = system: LOX IMVI melanoma
[7] = system: M14 melanoma
[8] = system: MDA-MB-435
[9] = system: NCI-H226 lung
[10] = system: NCI-H460 lung
[11] = system: NCI/ADR-RES ovarian
[12] = system: PC-3 prostate
[13] = system: RXF 393 renal
[14] = system: SN12C renal
[15] = system: SNB-75 CNS
[16] = system: T-47D breast
[17] = system: UO-31 renal

Row | Structure (SMILES) | TGI [1] [µM] | TGI [2] [µM] | TGI [3] [µM] | TGI [4] [µM] | TGI [5] [µM] | TGI [6] [µM] | TGI [7] [µM] | TGI [8] [µM] | TGI [9] [µM] | TGI [10] [µM] | TGI [11] [µM] | TGI [12] [µM] | TGI [13] [µM] | TGI [14] [µM] | TGI [15] [µM] | TGI [16] [µM] | TGI [17] [µM] | GI50 [1] [µM] | GI50 [13] [µM] | GI50 [11] [µM]
1 | C(=C/CCCN1O[C@@H](CCCCCCCCc2cccnc2)[C@H]2CCC[C@H]21)/CCCCCCCCCc1cccnc1 | 45.5 | 41.3 | 23 | 49.3 | 28.1 | 35.3 | 63 | 38 | 36.8 | 39.2 | 88.5 | 46.1 | 32.9 | 40.3 | 51.4 | 66.6 | 40.5 |  |  | 
2 | COCOC1/C=C/CCCCC(=O)C(C)C#CC1 (stereo not given) | 24.6 | 5.81 | 4.33 | 33.9 | 8.46 | 7.36 | 14.5 | 18.3 | 35.3 | 23.9 | 14.4 | 24 | 9.19 | 19 | 26.1 | 6.39 | 18.9 |  |  | 
3 | Cc1ccc(S(=O)(=O)N2C3C=CC(C3)[C@@H]2C(Cl)(Cl)Cl)cc1 (stereo not given in full) | 47.5 | 71.2 | > 47 | 41.5 | 38.1 | 33.2 | 39.1 | > 88.4 | 60.9 | 35.5 | 44.6 | > 70.3 | 41.4 | 44.2 | 51.2 | > 100 | 59.3 | 11.8 | 19.2 | 
4 | COc1ccc(S(=O)(=O)n2c3c(c4ccccc42)[C@@H]2[C@@H](CCCN2C(=O)CS(=O)c2ccc(C)cc2)[C@H](Cl)C3)cc1 (stereo not given in full) | > 100 | > 100 | > 100 | > 100 | > 100 | > 100 | > 100 | > 100 | > 100 | > 100 | > 100 | > 100 | > 100 | > 100 | > 100 | > 100 | > 100 |  |  | 
5 | O=C(O)C1C2c3ccccc3C(c3ccccc32)C1C(=O)NCC1CC1 (stereo not given) | > 100 | 96.8 | 77.2 | > 100 | > 100 | > 100 | > 100 | > 100 | > 100 | > 100 | > 100 | > 100 | > 100 | > 100 | > 100 | > 100 | > 100 |  |  | 
6 | NC(Cc1ccccc1)C(=O)NC(Cc1ccccc1)NC(=O)C(Cc1c[nH]c2ccccc12)C(=O)O (stereo not given) | > 100 | > 100 | > 100 | > 100 | > 100 | > 100 | > 100 | > 100 | > 100 | > 100 | > 100 | > 100 | > 100 | > 100 | > 100 | > 100 | > 100 |  |  | 
7 | CCN(CC)CCCNC(=O)c1cc(-c2nccn2C)nc2ccccc12 | > 100 | > 100 | > 100 | > 100 | > 100 | > 100 | > 100 | > 100 | > 100 | > 100 | > 100 | > 100 | > 100 | > 100 | > 100 | > 100 | > 100 |  |  | 
8 | CC(C)(CN1CCCCC1)C(/C=C/c1ccc(Cl)cc1)=N\NC(=O)N/N=C(/C=C/c1ccc(Cl)cc1)C(C)(C)CN1CCCCC1 | 20.4 | > 21.9 | > 19.9 | 14.2 | 8.72 | 5.97 | 11.1 | 13.5 | 16.4 | 10.2 | 29.4 | 19.7 | 8.24 | 14.6 | 12.7 | 13.6 | 9.03 |  |  | 
9 | CCOC(=O)/C(C#N)=C/c1coc2cc(C)cc(C)c2c1=O | > 100 | > 100 | > 100 | > 100 | > 100 | > 100 | > 100 | > 100 | > 100 | > 100 | > 100 | > 100 | > 100 | > 100 | > 100 | > 100 | > 100 |  |  | 
10 | O=c1[nH]c(=O)c2c3n(cc2[nH]1)CCCCC3 | > 100 | > 100 | > 100 | > 100 | > 100 | > 100 | > 100 | > 100 | > 100 | > 100 | > 100 | > 100 | > 100 | > 100 | > 100 | > 100 | > 100 |  |  | 
11 | COc1ccc2oc3c(C)cc4c(OC)nnc(OC)c4c3c2c1 | > 100 | > 100 | > 100 | > 100 | > 100 | > 100 | > 100 | > 100 | > 100 | > 100 | > 100 | > 100 | > 100 | > 100 | > 100 | > 100 | > 100 |  |  | 
12 | O=C1C(Br)=C(Br)C(=O)c2ccc(=O)ccc21 | > 100 | 17 | 13.7 | > 79.2 | 34.8 | 41.2 | 32.7 | 33.3 | > 100 | 67.6 | 53.3 | > 100 | 36.3 | 33.7 | > 100 | 48.5 | 34.9 |  |  | 
13 | COc1ccc(C(C)NNC(=O)c2ccncc2)cc1OC (stereo not given) | > 100 | > 100 | > 100 | > 100 | > 100 | > 100 | > 100 | > 100 | > 100 | > 100 | > 100 | > 100 | > 100 | > 100 | > 100 | > 100 | > 100 |  |  | 
14 | COc1ccc(C(SCCO)(c2ccccc2)c2ccc(OC)cc2)cc1 | 27.1 | 40.7 | 47.2 | 42 | 29.1 | 33.8 | 23.1 | 20.5 | 28.6 | 17.2 | 34.7 | 28.9 | 17.7 | 30.5 | 16.8 | 34.1 | 31.7 |  |  | 
15 | COc1ccccc1CC(=O)C(O)(C(F)(F)F)C(F)(F)F | > 100 | > 100 | > 100 | > 100 | > 100 | > 100 | > 100 | > 100 | > 100 | > 100 | > 100 | > 100 | > 100 | > 100 | > 100 | > 100 | > 100 |  |  | 
16 | CCOC(=O)CCC(NC(=O)C(N)Cc1ccc(N(CCCl)CCCl)cc1)C(=O)OCC (stereo not given) | > 100 | 4.29 | 0.586 | 7.9 | 1.59 | 1.63 | 1.39 | 3.75 | 20.7 | 4.09 | 19 | 7.9 | 0.739 | 5.72 | 2.79 | 3.84 | 2.92 |  | 0.17 | 3.52
17 | COc1ccc(C2c3cc4c(cc3OC3(OC)COC(=O)C23)OCO4)c(OC)c1 (stereo not given) | > 92.9 | > 46.8 | 9.31 | > 100 | 97.6 | > 100 | 25.8 | 5.47 | > 100 | > 100 | 34.5 | > 100 | 35.4 | > 100 | 45.5 | > 100 | > 100 |  |  | 
18 | CC(N)/C(N)=N/O (stereo not given) | > 100 | > 100 | > 100 | > 100 | > 100 | > 100 | > 100 | > 100 | > 100 | > 100 | > 100 | > 100 | > 100 | > 100 | > 100 | > 100 | > 100 |  |  | 
